Data published in patent publication US20240353414A1 (Calico Life Sciences LLC, priority 2021, published 2024).

Key:
mitochondrial pH [1] = settings: BALB/cJ mouse, subcutaneous tumor expressing mito-pH-Countdown, before vs after administration of BAM15
From the text: Left panel: Raw time lapse animation (grayscale) of the back of a BALB/cJ mouse carrying a subcutaneous tumor expressing mito-pH-Countdown, measured in the GFP channel of a simple fluorescence photography system. […] Orange/blue/green box marks a region expressing mito-pH-Countdown. Right panel: Average fluorescent signal vs. time for two measurements before(orange, dots) and two measurements after (blue or green, triangles) administration of the mitochondrial uncoupler BAM15. […] Light gray lines show calibration measurements for pH 7.5 (solid) and pH 8 (dashed).

mitochondrial pH [2] = settings: same cell type given the same drug in a dish

Fc1ccccc1Nc1nc2nonc2nc1Nc1ccccc1F [BAM15] was tested. Which “drug-induced shift in mitochondrial pH” value (mitochondrial pH [1]) did it give?
The value was “roughly 0.2 pH units”.

And the “shift in mitochondrial pH” value (mitochondrial pH [2])?
Its value is ~1 pH unit.
